Measurements: patent US12016358B2, “Composition comprising taste modulation compounds, their use and foodstuff comprising them” (V. MANE FILS, priority 2015, dated 2024)
Entries after “also recorded” stand apart in the source; their conditions may differ. Marks after values point to notes of the source that are not given here.

Tests used:
Assay type in all cases: in vivo, human
[1] = tested on: Saltiness and Salivation (cheese sauce); assay: Various levels of pantolactone (D-isomer) in cheese sauce, expert tasters; details: for Saltiness score: 1 = low up to 5 = high, Control 1
Excerpt: Five expert tasters consumed the Control and then samples comprising various levels of pantolactone (D-isomer). It was concluded that pantolactone (D-isomer) is clean tasting up to 10-12 ppm in cheese sauce.

[2] = tested on: umami taste perception (chicken broth); assay: Chicken broth, expert tasters; details: Campbell's chicken noodle soup broth 50:50 with water; 5 ppm (each); vs Control
Excerpt: Five expert tasters consumed the Control (chicken broth) and then chicken broth with either 5 ppm of pantolactone (D-isomer) or 5 ppm of mevalonolactone.

[3] = tested on: Sweetness of Rebaudioside-A; assay: Sweetness of Rebaudioside-A water solutions, expert tasters
Excerpt: The product containing either 25 or 250 ppm Reb-A without pantolactone (Control) is compared with the product containing pantolactone (D-isomer) added at either 5, 10 or 20 ppm as noted in Table 6.

[4] = tested on: Heat Perception of Chili Extract Paste; assay: Heat perception of chili extract paste in water, expert tasters; details: 5 ppm
Experimental: Pantolactone (D-isomer) and mevalonolactone were added at 5 ppm to chili extract paste and dissolved in water.
The taste perception of the product without the flavour modifying composition (Control) was compared with the same product (Test) containing the flavour modifying composition. Four expert tasters consumed the chili extract paste solution alone and then the tasters consumed one of two different dilution formats (medium or hot) of the chili extract paste solution containing 5 ppm of either pantolactone (D-isomer) or mevalonolactone.

[5] = tested on: Sweetness and Bitterness of Milk Chocolate; assay: Milk chocolate, expert testers; details: 5 ppm, vs Control
Excerpt: The taste perception of the product without the addition of flavour modification compostion (Control) was compared with the same product (Test) containing the flavour modifying composition.

[6] = tested on: Complexity and Body of Wine; assay: Wine, expert tasters; details: 5 ppm (each); vs Control
Experimental: Pantolactone (D-isomer) and mevalonolactone were added individually or as a mixture at 5 ppm each to wine.

[7] = tested on: Flavour Balance of a Tomato-Based Condiment; assay: Ketchup samples, expert panel; details: 5.4 ppm; vs Control (0.1% ethyl alcohol)
Experimental: Ketchup containing sucrose as the base sweetener in two different formulations and ketchup containing sucralose as the base sweetener in a third formulation were evaluated without (control) and with addition of pantolactone added at 5.4 ppm (test).

[8] = tested on: Salt Taste in a Low Sodium Soy Sauce; assay: Low sodium soy sauce, expert tasters; details: 5 ppm solution, 1 ml (0.005 mg) between two 1 g soy sauce portions
Experimental: Low sodium soy sauce (Kikkoman's®) was evaluated without and with a water based solution of 2-acetyl-butyrolactone and 4-hydroxy-6-methyl-2-pyrone at 5 ppm concentration. Five expert tasters consumed 1 g low sodium soy sauce alone, then 1 ml of flavour modifying solution, and then again 1 g of the low sodium soy sauce.

[9] = tested on: Saltiness of Cheese Sauce; assay: Cheese sauce (Ragu), expert tasters; details: 5 ppm solution, 1 ml (0.005 mg) between two 20 g portions
Experimental: Cheese sauce (Ragu®) was evaluated without and with a water based solution of 2-acetyl-butyrolactone and 4,6-dimethyl-alpha-pyrone at 5 ppm concentration. Five expert tasters consumed 20 g cheese sauce alone, then 1 ml of flavour modifying solution, and then again 20 g of cheese sauce.

[10] = tested on: Saltiness and Salivation (cheese sauce); assay: Mixtures of pantolactone, m-cresol and 3-n-propylphenol in cheese sauce, expert tasters
Excerpt: A number of combinations of Pantolactone, m-cresol and 3-n-propylphenol are noted in Table 15. Five expert tasters consumed the Control and then each of the treatments and recorded a score.

[11] = tested on: Salt Taste in a Chicken Powder Solution; assay: Saltiness of chicken powder solution, DFR panel; details: chicken powder and sodium chloride in water, 5 ppm
Experimental: Panelists evaluated all samples in fully enclosed partitioned booths under white lights. Fizz NETWORK Software Acquisitions Biosystemes 2.478 was used for data collection. Each panelist was provided with filtered water for rinsing and instructed to follow a strict rinsing procedure. The rinsing protocol required panelists to rinse prior to tasting the first sample, and after tasting each sample.
Samples were evaluated using a Deviation from Reference (DFR) method. Panelists were given an identified reference labeled “000” and a coded sample simultaneously. The coded sample was either a blind, coded reference or a coded test sample. The panelists were instructed to taste the reference (000) first and mentally evaluate its SALTINESS intensity. Panelists were then instructed to taste and rate the coded sample's intensity for SALTINESS compared to the identified reference. Sample sets were given to the panelists in balanced, randomized order. A one-minute wait period was enforced between sample sets to reduce flavour carryover.
Panelists rated SALTINESS intensity difference from the reference using a 9-pt scale anchored with the following descriptors: (−4) Extremely less than Reference, (0) Same as Reference, (4) Extremely more than Reference. Number values were NOT shown on the scale. Statistical mean differences were calculated using one-way ANOVA using Fizz Calculations Biosystemes 2.478. […]

[12] = water, 25 ppm Reb-A, 20 ppm pantolactone (D-isomer)

CC1(C)COC(=O)C1O (single isomer, unassigned) [pantolactone (D-isomer)]
Salivation effect ([1]; 0.54 ppm): no | Saltiness score ([1]; 0.54 ppm): 1.8 | Salivation effect ([1]; 2.7 ppm): yes | Saltiness score ([1]; 2.7 ppm): 2.2 | Salivation effect ([1]; 5.4 ppm): yes | Saltiness score ([1]; 5.4 ppm): 2.5 | Salivation effect ([1]; 10.8 ppm): yes | Saltiness score ([1]; 10.8 ppm): 3 | Salivation effect ([1]; 27 ppm): yes | Saltiness score ([1]; 27 ppm): 3 ** | Observations [2]: amplify umami taste perception; also recorded: Fatty from chicken fat; also recorded: Enhanced umami | sweetness vs control sample ([3]; increasing levels added to 25 ppm Reb-A water solutions, up to 20 ppm): more sweetness than the control sample | perception of sweetness ([3]; increasing levels added to 250 ppm Reb-A water solutions): cleaner upfront perception of sweetness with less lingering taste | Taster Observations Taster 1 [3, 12]: second sweetest | Taster Observations Taster 2 [3, 12]: sweet like 10 ppm | perception of heat (conclusion) [4]: lower perception of heat and less lingering of heat | sweetness and bitterness perception, Hershey's Bliss Chocolate [5]: perceived sweeter and less bitter | perception of complexity and body, Box red wine - Vella Burgundy California Table Wine [6]: more complex and having more body | Observations Ketchup sucralose-based, Source #3 [7]: improved dramatically in all elements | Observations Ketchup sucrose-based, Source #1 [7]: enhanced in a balanced way | Observations Ketchup sucrose-based, Source #2 [7]: taste enhancement but not in a balanced way

CC(=O)C1CCOC1=O (stereo not shown) [2-acetyl-butyrolactone]
Kikkoman's Low Sodium Soy Sauce: taste observation [8]: amplified saltiness; also recorded: slightly amplified saltiness | Cheese Sauce: taste observation [9]: amplified saltiness; also recorded: Slightly amplified umami

CCCc1cccc(O)c1 [3-n-propylphenol]
conclusion on blends / components [10]: effective, but exhibits flavour aroma character at slightly elevated levels

Cc1cc(C)oc(=O)c1 [4,6-dimethyl-alpha-pyrone]
Cheese Sauce: taste observation [9]: amplified saltiness; also recorded: Slightly amplified umami

Cc1cc(O)cc(=O)o1 [4-hydroxy-6-methyl-2-pyrone]
Kikkoman's Low Sodium Soy Sauce: taste observation [8]: amplified saltiness

C[C@@]1(O)CCOC(=O)C1 [mevalonolactone]
Observations [2]: amplify umami taste perception; also recorded: Enhanced umami; also recorded: Fatty from chicken fat | perception of heat (conclusion) [4]: enhanced perception of fruitiness but no change in the perception of heat | perception of complexity and body, Box red wine - Vella Burgundy California Table Wine [6]: more complex and having more body

CC1(C)COC(=O)C1O (stereo not shown) [pantolactone, dihydro-3-hydroxy-4,4-dimethyl-2(3H)-furanone]
difference in SALTINESS between Control and Variant ([11]; Control presented as the reference): significant difference | difference in SALTINESS between Control and Variant ([11]; Variant presented as the reference): not a significant difference in SALTINESS
